Experimental data: the NIST ThermoML archive (doi:10.1021/acs.jced.9b00057)

Assay: wn = mass fraction of the nth substance listed
Conditions: 298 K, 100 kPa, Liquid; for mass density: Vibrating tube method

CCCC(=O)O [butanoic acid] + O
Conditions | mass density [kg/m3]
w1 = 6.86e-05 | 997.07
w1 = 0.000154 | 997.07
w1 = 0.000352 | 997.09
w1 = 0.000628 | 997.08
w1 = 0.000783 | 997.12
w1 = 0.00206 | 997.2
w1 = 0.0023 | 997.22
w1 = 0.00429 | 997.33
w1 = 0.00704 | 997.57
w1 = 0.00763 | 997.62
w1 = 0.0151 | 998.25
w1 = 0.0157 | 998.3
w1 = 0.0285 | 999.62
w1 = 0.0453 | 1001.89
w1 = 0.0508 | 1002.79
w1 = 0.0589 | 1004.25
w1 = 0.073 | 1000.5
w1 = 0.087 | 1001.01
w1 = 0.0974 | 1014.17

CCCCCCCCCC(=O)[O-].CCCCCCCCCCCCCC[P+](CCCCCC)(CCCCCC)CCCCCC [trihexyltetradecylphosphonium decanoate] + O
Conditions | viscosity [mPa·s]
Cone and plate viscometry, w2 = 0.162 | 96.1

Conditions | mass density [kg/m3]
w2 = 0.162 | 900
